# Measured values reported in patent publication US10821152B2, “Methods, agents and compositions for treatment of inflammatory conditions” (Betanien Hospital, priority 2014, dated 2020).
# Non-standard residues stand in square brackets, D forms with d. Residues, ends and D or L forms follow the SMILES beside them. d(hArg(Et2)) = CCN=C(NCC)NCCCC[C@@H](N)C(=O)O; hArg(Et2) = CCN=C(NCC)NCCCC[C@H](N)C(=O)O; dPhe(4-Cl) = N[C@H](Cc1ccc(Cl)cc1)C(=O)O; d2Nal = N[C@H](Cc1ccc2ccccc2c1)C(=O)O; d3Pal = N[C@H](Cc1cccnc1)C(=O)O
# Experiments:
# Format in all cases: in vivo, human
# [1] = system: patient with tendonitis of the elbow; experiment: GnRH antagonist injection around tendon in tendonitis; conditions: 1.5 mg injected around the affected tendon, 2 week post injection
# Protocol: • person diagnosed with tendonitis of the elbow with ultrasound confirming tendonitis. Experimental Treatment • Treated with an injection of GnRH antagonist, Ganirelix 1.5 mg, around the affected tendon. Assessment of Response • Before and 2 week post injection ultrasound images are taken to show a decrease in tendonitis of the elbow.
# [2] = system: patient with ulcerative colitis; experiment: GnRH antagonist treatment for colitis (Ganirelix)
# Protocol: • person with ulcerative colitis for the past 10 years Experimental Treatment • Is offered Ganirelix 2 mg daily for 6months Assessment of Response • By 6 months they experience clinical remission with a partial Mayo score reduction from 3 to 0.
# [3] = system: patient with seropositive rheumatoid arthritis; experiment: Treatment of RA using Ganirelix
# Protocol: • person with seropositive rheumatoid arthritis with disease duration of 10 years. • Fulfilled ACR 2010 classification criteria for rheumatoid arthritis. Experimental Treatment • Had tried almost all available rheumatoid arthritis therapies available previously without effect. • Offered experimental GnRH antagonist therapy, Ganirelix 0.75 mg sc daily (0.25 mg sc three times a day) Assessment of Response at 4 Months • Disease activity score (DAS) reduction from 5.5 to 2.2 (remission). • A DAS reduction of 0.6 units is defined as a clinical response to treatment (1). • Their ESR decreased from 28 mm to 19 mm, with a normalization of their CRP from 23 mg/L to 5 mg/L. This is supported by the decrease in their anti-cyclic citrullinated peptide (CCP) antibodies from 27 u/mL. to 14 u/mL.
smiles,measurement,setting,value
CCN=C(NCC)NCCCC[C@H](NC(=O)[C@H](CC(C)C)NC(=O)[C@@H](CCCCNC(=NCC)NCC)NC(=O)[C@H](Cc1ccc(O)cc1)NC(=O)[C@H](CO)NC(=O)[C@@H](Cc1cccnc1)NC(=O)[C@@H](Cc1ccc(Cl)cc1)NC(=O)[C@@H](Cc1ccc2ccccc2c1)NC(C)=O)C(=O)N1CCC[C@H]1C(=O)N[C@H](C)C(N)=O [Ganirelix] (Ac-[d2Nal][dPhe(4-Cl)][d3Pal]SY[d(hArg(Et2))]L[hArg(Et2)]P[dA]-NH2),tendonitis of the elbow on ultrasound,[1],decrease
same,partial Mayo score,"[2]; Ganirelix 2 mg daily, by 6 months (clinical remission)",0
same,partial Mayo score,[2]; before Ganirelix,3
same,CRP,[3]; at 4 months,5 mg/L
same,ESR,[3]; at 4 months,19 mm
same,anti-cyclic citrullinated peptide (CCP) antibodies,[3]; at 4 months,14 u/mL
same,rheumatoid factor level,[3]; at 4 months,75 kIU/L
same,Disease activity score (DAS),"[3]; at 4 months, 0.75 mg sc daily (remission)",2.2
same,CRP,[3]; before Ganirelix,23 mg/L
same,Disease activity score (DAS),[3]; before Ganirelix,5.5
same,ESR,[3]; before Ganirelix,28 mm
same,anti-cyclic citrullinated peptide (CCP) antibodies,[3]; before Ganirelix,27 u/mL
same,rheumatoid factor level,[3]; before Ganirelix,113 kIU/L
